Measured values reported in patent US9309242B2, “Substituted pyrido[2,3-b]pyrazines as FGFR kinase inhibitors” (priority 2011, dated 2016).
Read-outs that look alike come from different tables or passages of the source.

Assays:
KDR (h) = KDR (h) (Homo sapiens, UniProt P35968); experiment: KDR (VEGFR2) (enzymatic assay), TR-FRET; format: biochemical; settings: average values if tested multiple times, read-out: VEGFR 2 (KDR) pIC50 (converted)
Procedure: KDR (VEGFR2) (Enzymatic Assay)
In a final reaction volume of 30 μL, KDR (h) (150 ng/ml) was incubated with 50 mM HEPES pH 7.5, 6 mM MnCl2, 1 mM DTT, 0.1 mM Na3VO4, 0.01% Triton-X-100, 500 nM Btn-Flt3 and 3 μM ATP in the presence of compound (1% DMSO final). After incubation for 120 minutes at room temperature the reaction was stopped with 2.27 nM EU-anti P-Tyr, 7 mM EDTA, 31.25 nM SA-XL-665 and 0.02% BSA which was present for 60 minutes at room temperature. Time-Resolved Fluorescence Resonance Energy Transfer (TR-FRET) signal (ex340 nm. Em 620 nm, em 655 nm) was measured afterwards and results are expressed in RFU (Relative Fluorescence Units).

FGFR4 (h) = FGFR4 (h) (Homo sapiens, UniProt P22455); experiment: FGFR4 (enzymatic assay), TR-FRET; format: biochemical; settings: FGFR 4 pIC50, enzymatic assay; average values if tested multiple times
Sequence of FGFR4 (h) (P22455 22-802): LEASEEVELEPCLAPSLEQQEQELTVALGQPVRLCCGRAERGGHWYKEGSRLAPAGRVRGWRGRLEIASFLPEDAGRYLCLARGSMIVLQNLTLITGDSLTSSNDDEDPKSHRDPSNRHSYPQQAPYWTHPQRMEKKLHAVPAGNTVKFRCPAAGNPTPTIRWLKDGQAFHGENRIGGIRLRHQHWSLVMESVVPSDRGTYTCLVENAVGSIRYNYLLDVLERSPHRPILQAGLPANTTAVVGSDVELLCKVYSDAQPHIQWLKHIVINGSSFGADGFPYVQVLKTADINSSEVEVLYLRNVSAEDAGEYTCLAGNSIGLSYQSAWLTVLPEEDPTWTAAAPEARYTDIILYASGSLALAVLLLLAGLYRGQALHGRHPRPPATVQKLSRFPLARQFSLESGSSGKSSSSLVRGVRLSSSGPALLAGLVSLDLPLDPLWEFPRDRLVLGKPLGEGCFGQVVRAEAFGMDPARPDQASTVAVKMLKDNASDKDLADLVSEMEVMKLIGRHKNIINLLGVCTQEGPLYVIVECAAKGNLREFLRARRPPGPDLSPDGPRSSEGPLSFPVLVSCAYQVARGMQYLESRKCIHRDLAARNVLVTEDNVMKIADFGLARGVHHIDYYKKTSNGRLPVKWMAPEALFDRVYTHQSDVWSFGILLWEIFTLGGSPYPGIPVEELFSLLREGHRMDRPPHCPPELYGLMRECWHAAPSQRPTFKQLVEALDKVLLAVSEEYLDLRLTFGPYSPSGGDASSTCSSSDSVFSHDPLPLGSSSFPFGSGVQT

FGFR3 (h) = FGFR3 (h) (Homo sapiens, UniProt P22607); experiment: FGFR3 (enzymatic assay), TR-FRET; format: biochemical; settings: average values if tested multiple times, read-out: FGFR 3 pIC50 (converted)
Source text: Time-Resolved Fluorescence Resonance Energy Transfer (TR-FRET) signal (ex340 nm.

[1] = target: T1, Ba/F3-FGFR3-transfected cells (Homo sapiens, UniProt P22607); experiment: Ba/F3-FGFR3 (minus IL3) cellular proliferation assay, Alamar Blue; format: cell-based
T1 construct: BAF3-FGFR3 (MIN IL3) pIC50; other: minus IL3
T1 sequence (P22607 whole entry, change not shown): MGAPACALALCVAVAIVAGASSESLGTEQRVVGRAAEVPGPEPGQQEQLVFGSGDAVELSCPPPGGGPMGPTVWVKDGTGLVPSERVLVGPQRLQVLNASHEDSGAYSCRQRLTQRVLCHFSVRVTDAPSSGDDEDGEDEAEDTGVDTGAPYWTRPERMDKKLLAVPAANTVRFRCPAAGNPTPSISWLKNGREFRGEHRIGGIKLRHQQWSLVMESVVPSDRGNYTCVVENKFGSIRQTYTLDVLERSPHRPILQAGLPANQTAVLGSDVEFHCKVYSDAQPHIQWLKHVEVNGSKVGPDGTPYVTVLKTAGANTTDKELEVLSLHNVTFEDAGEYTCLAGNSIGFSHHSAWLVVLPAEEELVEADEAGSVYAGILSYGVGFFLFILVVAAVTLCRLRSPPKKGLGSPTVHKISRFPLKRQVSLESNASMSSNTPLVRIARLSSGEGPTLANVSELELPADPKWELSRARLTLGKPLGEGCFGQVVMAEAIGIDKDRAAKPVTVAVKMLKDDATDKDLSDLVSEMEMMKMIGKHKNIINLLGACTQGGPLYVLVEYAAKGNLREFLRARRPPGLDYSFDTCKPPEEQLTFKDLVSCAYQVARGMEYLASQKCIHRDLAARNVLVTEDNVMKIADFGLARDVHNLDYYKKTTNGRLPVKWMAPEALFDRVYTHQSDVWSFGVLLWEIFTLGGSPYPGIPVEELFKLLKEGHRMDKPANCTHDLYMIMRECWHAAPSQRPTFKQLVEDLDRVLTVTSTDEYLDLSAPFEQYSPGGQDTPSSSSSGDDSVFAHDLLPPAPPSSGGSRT
Procedure: (§1) Ba/F3-FGFR3 (Minus IL3 or Plus IL3) (Cellular Proliferation Assay)
(§2) In a 384 well plate, 100 nl of compound dilution in DMSO was sprayed before adding 50 μl cell culture medium (phenol red free RPMI-1640, 10% FBS, 2 mM L-Glutamine and 50 μg/ml Gentamycin) containing 20000 cells per well of Ba/F3-FGFR3-transfected cells. Cells were put in an incubator at 37° C. and 5% CO2. After 24 hours, 10 μl of Alamar Blue solution (0.5 mM K3Fe(CN)6, 0.5 mM K4Fe(CN)6, 0.15 mM Resazurin and 100 mM Phosphate Buffer) was added to the wells, incubated for 4 hours at 37° C. and 5% CO2 before RFU's (Relative Fluorescence Units) (ex. 540 nm., em. 590 nm.) were measured in a fluororescence plate reader. […]

FGFR2 (h) = FGFR2 (h) (Homo sapiens, UniProt P21802); experiment: FGFR2 (enzymatic assay), TR-FRET; format: biochemical; settings: average values if tested multiple times
Procedure: In a final reaction volume of 30 μL, FGFR2 (h) (150 ng/ml) was incubated with 50 mM HEPES pH 7.5, 6 mM MnCl2, 1 mM DTT, 0.1 mM Na3VO4, 0.01% Triton-X-100, 500 nM Btn-Flt3 and 0.4 μM ATP in the presence of compound (1% DMSO final).

[2] = system: Ba/F3-FGFR1-transfected cells; experiment: Ba/F3-FGFR1 (plus IL3) cellular proliferation assay, counterscreen with 10 ng/ml murine IL3; format: cell-based; settings: read-out: BAF3-FGFR1 (PLUS IL3) pIC50 (converted)
Procedure: (§3) Ba/F3-FGFR1 (Minus IL3 or Plus IL3) (Cellular Proliferation Assay)
(§4) In a 384 well plate, 100 nl of compound dilution in DMSO was sprayed before adding 50 μl cell culture medium (phenol red free RPMI-1640, 10% FBS, 2 mM L-Glutamine and 50 μg/ml Gentamycin) containing 20000 cells per well of Ba/F3-FGFR1-transfected cells. Cells were put in an incubator at 37° C. and 5% CO2. After 24 hours, 10 μl of Alamar Blue solution (0.5 mM K3Fe(CN)6, 0.5 mM K4Fe(CN)6, 0.15 mM Resazurin and 100 mM Phosphate Buffer) was added to the wells, incubated for 4 hours at 37° C. and 5% CO2 before RFU's (Relative Fluorescence Units) (ex. 540 nm., em. 590 nm.) were measured in a fluororescence plate reader.
(§5) As a counterscreen the same experiment was performed in the presence of 10 ng/ml murine IL3.

[3] = target: T2, Ba/F3-FGFR1-transfected cells (Homo sapiens, UniProt P11362); experiment: Ba/F3-FGFR1 (minus IL3) cellular proliferation assay, Alamar Blue; format: cell-based
T2 construct: BAF3-FGFR1 (MIN IL3) pIC50; other: minus IL3
T2 sequence (P11362 whole entry, change not shown): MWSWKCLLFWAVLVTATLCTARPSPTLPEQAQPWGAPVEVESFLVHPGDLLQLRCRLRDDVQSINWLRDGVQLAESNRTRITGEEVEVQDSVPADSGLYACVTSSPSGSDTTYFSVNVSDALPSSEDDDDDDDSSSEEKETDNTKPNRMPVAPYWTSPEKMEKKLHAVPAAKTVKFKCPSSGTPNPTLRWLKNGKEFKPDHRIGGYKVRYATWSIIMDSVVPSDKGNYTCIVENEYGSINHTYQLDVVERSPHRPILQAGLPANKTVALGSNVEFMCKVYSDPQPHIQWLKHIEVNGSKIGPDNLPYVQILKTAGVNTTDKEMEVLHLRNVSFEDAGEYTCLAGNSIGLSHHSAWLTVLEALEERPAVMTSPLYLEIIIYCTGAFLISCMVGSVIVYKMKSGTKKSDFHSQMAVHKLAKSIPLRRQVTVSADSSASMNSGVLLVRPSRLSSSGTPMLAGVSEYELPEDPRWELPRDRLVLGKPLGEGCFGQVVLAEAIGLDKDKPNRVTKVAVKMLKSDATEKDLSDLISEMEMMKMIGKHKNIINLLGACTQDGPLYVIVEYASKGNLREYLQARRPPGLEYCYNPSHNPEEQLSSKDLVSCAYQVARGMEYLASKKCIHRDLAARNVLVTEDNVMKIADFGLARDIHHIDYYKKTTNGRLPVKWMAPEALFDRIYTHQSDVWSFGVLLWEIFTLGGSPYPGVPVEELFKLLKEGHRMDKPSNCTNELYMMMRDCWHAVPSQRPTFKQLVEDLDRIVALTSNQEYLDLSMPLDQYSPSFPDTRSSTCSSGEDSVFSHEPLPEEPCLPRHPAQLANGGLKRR
Procedure: as §3, §4

[4] = target: T3, Ba/F3-KDR-transfected cells (Homo sapiens, UniProt P35968); experiment: Ba/F3-KDR (minus IL3) cellular proliferation assay, Alamar Blue; format: cell-based
T3 construct: BAF3-KDR (MIN IL3) pIC50; other: minus IL3
Procedure: Ba/F3-KDR (Minus IL3 or Plus IL3) (Cellular Proliferation Assay)
as §2, with “n1” for “nl”, “Ba/F3-KDR-transfected” for “Ba/F3-FGFR3-transfected”

FGFR1 (h) = FGFR1 (h) (Homo sapiens, UniProt P11362); experiment: FGFR1 (enzymatic assay), TR-FRET; format: biochemical; settings: average values if tested multiple times, read-out: FGFR 1 pIC50 (converted)
Sequence of FGFR1 (h) (P11362 22-822): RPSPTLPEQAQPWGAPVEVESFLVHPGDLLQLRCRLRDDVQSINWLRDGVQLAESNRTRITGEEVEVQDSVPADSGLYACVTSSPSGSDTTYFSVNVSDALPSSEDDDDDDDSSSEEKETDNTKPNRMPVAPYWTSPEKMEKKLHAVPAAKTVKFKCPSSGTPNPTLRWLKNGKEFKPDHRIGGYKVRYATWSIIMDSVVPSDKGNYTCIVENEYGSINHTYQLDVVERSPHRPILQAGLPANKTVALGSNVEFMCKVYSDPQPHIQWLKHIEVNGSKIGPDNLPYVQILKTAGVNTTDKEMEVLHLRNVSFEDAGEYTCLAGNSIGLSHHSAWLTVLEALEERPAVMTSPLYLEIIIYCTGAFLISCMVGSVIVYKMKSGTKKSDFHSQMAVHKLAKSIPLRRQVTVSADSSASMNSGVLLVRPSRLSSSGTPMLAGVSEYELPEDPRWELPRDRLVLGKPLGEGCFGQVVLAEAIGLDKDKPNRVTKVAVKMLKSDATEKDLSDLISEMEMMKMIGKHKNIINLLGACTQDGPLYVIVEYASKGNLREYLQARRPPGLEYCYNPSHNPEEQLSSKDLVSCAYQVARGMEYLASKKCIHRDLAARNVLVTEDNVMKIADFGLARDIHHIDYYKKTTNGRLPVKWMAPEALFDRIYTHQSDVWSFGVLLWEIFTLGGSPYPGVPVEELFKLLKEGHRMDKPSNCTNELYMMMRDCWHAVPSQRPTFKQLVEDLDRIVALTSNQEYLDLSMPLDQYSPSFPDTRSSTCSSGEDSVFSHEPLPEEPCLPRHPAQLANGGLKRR

[5] = system: Ba/F3-FGFR3-transfected cells; experiment: Ba/F3-FGFR3 (plus IL3) cellular proliferation assay, counterscreen with 10 ng/ml murine IL3; format: cell-based; settings: read-out: BAF3-FGFR3 (PLUS IL3) pIC50 (converted)
Procedure: as §1
In a 384 well plate, 100 nl of compound dilution in DMSO was sprayed before adding 50 μl cell culture medium (phenol red free RPMI-1640, 10% FBS, 2 mM L-Glutamine and 50 μg/ml Gentamycin) containing 20000 cells per well of Ba/F3-FGFR3-transfected cells. Cells were put in an incubator at 37° C. and 5% CO2. After 24 hours, 10 μl of Alamar Blue solution (0.5 mM K3Fe(CN)6, 0.5 mM K4Fe(CN)6, 0.15 mM Resazurin and 100 mM Phosphate Buffer) was added to the wells, incubated for 4 hours at 37° C. and 5% CO2 before RFU's (Relative Fluorescence Units) (ex. 540 nm., em. 590 nm.) were measured in a fluororescence plate reader.
as §5

[6] = target: Ba/F3-FGFR4-transfected cells (Homo sapiens, UniProt P22455); experiment: Ba/F3-FGFR4 cellular proliferation assay, Alamar Blue; format: cell-based
Procedure: Ba/F3-FGFR4 (Cellular Proliferation Assay)
as §4, with “n1” for “nl”, “Ba/F3-FGFR4-transfected” for “Ba/F3-FGFR1-transfected”

[7] = enzymatic assay, read-out: FGFR 2 pIC50 (converted)
[8] = plus IL3 (10 ng/ml murine IL3, counterscreen)

Sequence of KDR (h) (P35968 20-1356): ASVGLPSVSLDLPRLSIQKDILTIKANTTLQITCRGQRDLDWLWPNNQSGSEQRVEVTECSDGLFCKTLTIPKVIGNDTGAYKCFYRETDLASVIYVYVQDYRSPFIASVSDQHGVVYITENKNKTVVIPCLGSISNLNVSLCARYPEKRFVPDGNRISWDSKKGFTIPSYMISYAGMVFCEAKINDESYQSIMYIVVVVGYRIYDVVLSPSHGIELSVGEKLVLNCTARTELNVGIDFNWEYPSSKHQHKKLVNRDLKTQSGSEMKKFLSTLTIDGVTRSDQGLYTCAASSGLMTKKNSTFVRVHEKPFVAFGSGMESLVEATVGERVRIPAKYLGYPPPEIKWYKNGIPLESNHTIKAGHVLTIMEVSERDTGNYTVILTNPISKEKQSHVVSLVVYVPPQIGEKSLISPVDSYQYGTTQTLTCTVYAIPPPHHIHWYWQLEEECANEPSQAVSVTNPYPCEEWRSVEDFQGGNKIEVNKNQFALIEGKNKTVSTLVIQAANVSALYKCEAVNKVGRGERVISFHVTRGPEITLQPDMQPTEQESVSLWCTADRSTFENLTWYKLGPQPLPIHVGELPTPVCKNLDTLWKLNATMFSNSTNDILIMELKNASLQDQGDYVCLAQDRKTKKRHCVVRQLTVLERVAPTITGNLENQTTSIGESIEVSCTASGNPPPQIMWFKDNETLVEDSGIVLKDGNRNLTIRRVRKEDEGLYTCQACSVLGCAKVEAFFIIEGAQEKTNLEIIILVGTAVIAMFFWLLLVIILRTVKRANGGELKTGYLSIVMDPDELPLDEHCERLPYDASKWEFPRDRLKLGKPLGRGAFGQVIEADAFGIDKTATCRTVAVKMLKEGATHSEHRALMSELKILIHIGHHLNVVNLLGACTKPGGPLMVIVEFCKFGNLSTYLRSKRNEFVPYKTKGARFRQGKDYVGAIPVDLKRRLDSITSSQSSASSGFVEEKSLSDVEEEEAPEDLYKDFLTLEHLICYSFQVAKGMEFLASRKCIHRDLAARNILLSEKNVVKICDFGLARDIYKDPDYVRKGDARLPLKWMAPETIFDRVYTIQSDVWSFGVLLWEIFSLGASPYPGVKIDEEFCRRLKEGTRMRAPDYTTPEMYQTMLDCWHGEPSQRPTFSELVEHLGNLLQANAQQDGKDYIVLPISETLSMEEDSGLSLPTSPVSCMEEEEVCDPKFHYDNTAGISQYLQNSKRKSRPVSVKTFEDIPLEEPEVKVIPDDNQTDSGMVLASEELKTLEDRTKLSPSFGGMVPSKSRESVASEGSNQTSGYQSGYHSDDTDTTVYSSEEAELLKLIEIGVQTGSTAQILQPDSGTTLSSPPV

COc1cc(OC)c(F)c(/N=c2\ccc3ncc(-c4cnn(C)c4)nc3n2CCNC(C)C)c1F [Compound 6]
IC50 (KDR (h)): 50.1 nM | IC50 (FGFR4 (h)): 5.01 nM | IC50 (FGFR3 (h)): 3.16 nM | BAF3-FGFR3 (MIN IL3) pIC50 [1]: 7.6 | IC50 (FGFR2 (h); [7]): 5.01 nM | IC50 [2, 8]: > 10000 nM | BAF3-FGFR1 (MIN IL3) pIC50 [3]: 8.0 | BAF3-KDR (MIN IL3) pIC50 [4]: 5.7 | IC50 (FGFR1 (h)): 1 nM | IC50 [5, 8]: > 10000 nM

COc1cc(OC)cc(N(CCO)c2ccc3ncc(-c4cnn(C)c4)nc3n2)c1 [Compound 21]
IC50 (KDR (h)): 63.1 nM | IC50 (FGFR4 (h)): 5.01 nM | IC50 (FGFR3 (h)): 0.794 nM | BAF3-FGFR3 (MIN IL3) pIC50 [1]: 7.3 | IC50 (FGFR2 (h); [7]): 3.98 nM | IC50 [2, 8]: > 10000 nM | BAF3-FGFR1 (MIN IL3) pIC50 [3]: 7.3 | BAF3-KDR (MIN IL3) pIC50 [4]: 5.6 | BAF3-FGFR4 pIC50 [6]: 6.69 | IC50 (FGFR1 (h)): 2 nM | IC50 [5, 8]: > 10000 nM

COc1cc(OC)cc(N(CC(O)C(F)(F)F)c2ccc3ncc(-c4cnn(C)c4)nc3n2)c1 (stereo not shown) [Compound 8]
IC50 (KDR (h)): 126 nM | IC50 (FGFR4 (h)): 3.16 nM | IC50 (FGFR3 (h)): 2 nM | BAF3-FGFR3 (MIN IL3) pIC50 [1]: 7.6 | IC50 (FGFR2 (h); [7]): 6.31 nM | IC50 [2, 8]: > 10000 nM | BAF3-FGFR1 (MIN IL3) pIC50 [3]: 7.6 | BAF3-KDR (MIN IL3) pIC50 [4]: 5.3 | BAF3-FGFR4 pIC50 [6]: 6.66 | IC50 (FGFR1 (h)): 1.26 nM | IC50 [5, 8]: > 10000 nM

COc1cc(OC)cc(N(CCNC(C)C)c2ccc3ncc(-c4cnn(C)c4)nc3n2)c1 [Compound 1]
IC50 (KDR (h)): 251 nM | IC50 (FGFR4 (h)): 25.1 nM | IC50 (FGFR3 (h)): 5.01 nM | BAF3-FGFR3 (MIN IL3) pIC50 [1]: 8.1 | IC50 (FGFR2 (h); FGFR 2 pIC50, enzymatic assay): 25.1 nM | IC50 [2]: > 10000 nM | BAF3-FGFR1 (MIN IL3) pIC50 [3]: 8.5 | BAF3-KDR (MIN IL3) pIC50 [4]: 5.6 | BAF3-FGFR4 pIC50 [6]: ~7.06 | IC50 (FGFR1 (h)): 5.01 nM | IC50 [5]: > 10000 nM

COc1cc(OC)c(F)c(N(Cc2ncc[nH]2)c2ccc3ncc(-c4cnn(C)c4)nc3n2)c1F [Compound 25]
IC50 (KDR (h)): 79.4 nM | IC50 (FGFR4 (h)): 3.55 nM | IC50 (FGFR3 (h)): 2.51 nM | BAF3-FGFR3 (MIN IL3) pIC50 [1]: 8.5 | IC50 (FGFR2 (h); [7]): 14.1 nM | IC50 [2, 8]: 6310 nM | BAF3-FGFR1 (MIN IL3) pIC50 [3]: 8.8 | BAF3-KDR (MIN IL3) pIC50 [4]: 6.7 | BAF3-FGFR4 pIC50 [6]: ~8.23 | IC50 (FGFR1 (h)): 7.94 nM | IC50 [5, 8]: > 10000 nM

COc1cc(OC)cc(N(CCCO)c2ccc3ncc(-c4cnn(C)c4)nc3n2)c1 [Compound 18]
IC50 (KDR (h)): 50.1 nM | IC50 (FGFR4 (h)): 3.16 nM | IC50 (FGFR3 (h)): 1 nM | BAF3-FGFR3 (MIN IL3) pIC50 [1]: 7.3 | IC50 (FGFR2 (h); [7]): 3.98 nM | IC50 [2, 8]: > 10000 nM | BAF3-FGFR1 (MIN IL3) pIC50 [3]: 7.4 | BAF3-KDR (MIN IL3) pIC50 [4]: 5.5 | BAF3-FGFR4 pIC50 [6]: ~6.64 | IC50 (FGFR1 (h)): 2 nM | IC50 [5, 8]: > 10000 nM

COc1cc(/N=c2\ccc3ncc(-c4cnn(C)c4)nc3n2CCCO)cc(OC)c1 [Compound 19]
IC50 (KDR (h)): 5.01 nM | IC50 (FGFR4 (h)): 0.398 nM | IC50 (FGFR3 (h)): 0.316 nM | BAF3-FGFR3 (MIN IL3) pIC50 [1]: 8.0 | IC50 (FGFR2 (h); [7]): 1.26 nM | IC50 [2, 8]: > 10000 nM | BAF3-FGFR1 (MIN IL3) pIC50 [3]: 8.0 | BAF3-KDR (MIN IL3) pIC50 [4]: 6.4 | IC50 (FGFR1 (h)): 0.398 nM | IC50 [5, 8]: > 10000 nM

COc1cc(OC)c(F)c(N(Cc2ncccn2)c2ccc3ncc(-c4cnn(C)c4)nc3n2)c1F [Compound 11]
IC50 (KDR (h)): 398 nM | IC50 (FGFR4 (h)): 20 nM | IC50 (FGFR3 (h)): 7.08 nM | IC50 (FGFR2 (h); [7]): 50.1 nM | IC50 [2, 8]: > 10000 nM | BAF3-FGFR1 (MIN IL3) pIC50 [3]: 7.4 | BAF3-KDR (MIN IL3) pIC50 [4]: 6.3 | BAF3-FGFR4 pIC50 [6]: ~7.02 | IC50 (FGFR1 (h)): 50.1 nM | IC50 [5, 8]: > 10000 nM
